Experimental data published in ChEMBL document CHEMBL1139654, “Antiangiogenic activity of deoxoartemisinin derivatives on chorioallantoic membrane” (Bioorg Med Chem Lett, 2006).

Organism: Gallus gallus
Assay: Antiangiogenic activity at chorioallantoic membrane of chick embryo at 5 nmol per egg
Format: functional, organism-based

Structure (SMILES)	inhibition [%]	Activity
C[C@@H]1CC[C@H]2[C@H](CBr)CO[C@@H]3O[C@]4(C)CC[C@@H]1[C@]32OO4	75	
C[C@H]1[C@@H](CCc2ccc(C(=O)O)cc2)O[C@@H]2O[C@]3(C)CC[C@H]4[C@H](C)CC[C@@H]1[C@@]24OO3	29	
C[C@@H]1CC[C@H]2[C@@H](C)CO[C@@H]3O[C@]4(C)CC[C@@H]1[C@]32OO4	29	
CCS[C@H]1O[C@@H]2O[C@]3(C)CC[C@H]4[C@H](C)CC[C@@H]([C@H]1C)[C@@]24OO3	17	
C[C@@H]1CC[C@H]2[C@@H](COC[C@H]3CO[C@@H]4O[C@]5(C)CC[C@H]6[C@H](C)CC[C@@H]3[C@@]46OO5)CO[C@@H]3OC4(C)CC[C@@H]1[C@]32OO4 (single isomer, unassigned)	71	
C[C@H]1[C@@H](CCS(=O)(=O)CC[C@H]2O[C@@H]3O[C@]4(C)CC[C@H]5[C@H](C)CC[C@@H]([C@H]2C)[C@@]35OO4)O[C@@H]2O[C@@]3(C)CC[C@H]4[C@H](C)CC[C@@H]1[C@@]24OO3		Toxic
C[C@@H]1CC[C@H]2[C@@H](C)C(=O)O[C@@H]3O[C@@]4(C)CC[C@@H]1[C@]32OO4	25	
C[C@H]1[C@@H](CCNC(=O)CC[C@H]2O[C@@H]3O[C@]4(C)CC[C@H]5[C@H](C)CC[C@@H]([C@H]2C)[C@@]35OO4)O[C@@H]2O[C@]3(C)CC[C@H]4[C@H](C)CC[C@@H]1[C@@]24OO3	43	
C[C@H]1[C@@H](CC[S+]([O-])CC[C@H]2O[C@@H]3O[C@]4(C)CC[C@H]5[C@H](C)CC[C@@H]([C@H]2C)[C@@]35OO4)O[C@@H]2O[C@@]3(C)CC[C@H]4[C@H](C)CC[C@@H]1[C@@]24OO3		Toxic
CCO[C@H]1O[C@@H]2O[C@@]3(C)CC[C@H]4[C@H](C)CC[C@@H]([C@H]1C)[C@@]24OO3	29	
C=C1CO[C@@H]2O[C@]3(C)CC[C@H]4[C@H](C)CC[C@@H]1[C@@]24OO3	29	
C[C@H]1[C@@H](CCBr)O[C@@H]2O[C@]3(C)CC[C@H]4[C@H](C)CC[C@@H]1[C@@]24OO3	29	
CCCC[C@H]1O[C@@H]2O[C@]3(C)CC[C@H]4[C@H](C)CC[C@@H]([C@H]1C)[C@@]24OO3	63	
C[C@@H]1CC[C@H]2[C@@H](C(=O)O)CO[C@@H]3O[C@]4(C)CC[C@@H]1[C@]32OO4	20	
O=C1CC[C@H](N2C(=O)c3ccccc3C2=O)C(=O)N1	50	
C[C@H]1[C@@H](CCCC(=O)O)O[C@@H]2O[C@]3(C)CC[C@H]4[C@H](C)CC[C@@H]1[C@@]24OO3	50	
C[C@H]1[C@@H](O)O[C@@H]2O[C@@]3(C)CC[C@H]4[C@H](C)CC[C@@H]1[C@@]24OO3	25	
C[C@H]1[C@@H](CCCOC(=O)CC(=O)OCCC[C@H]2O[C@@H]3O[C@]4(C)CC[C@H]5[C@H](C)CC[C@@H]([C@H]2C)[C@@]35OO4)O[C@@H]2O[C@]3(C)CC[C@H]4[C@H](C)CC[C@@H]1[C@@]24OO3	14	
CO[C@@H]1[C@H](OC(=O)/C=C/C=C/C=C/C=C/C(=O)O)CC[C@]2(CO2)[C@H]1[C@@]1(C)O[C@@H]1CC=C(C)C	57	
C[C@H]1[C@@H](CCN)O[C@@H]2O[C@]3(C)CC[C@H]4[C@H](C)CC[C@@H]1[C@@]24OO3	29	
C[C@H]1[C@@H](CCO)O[C@@H]2O[C@]3(C)CC[C@H]4[C@H](C)CC[C@@H]1[C@@]24OO3	63	
C[C@@H]1CC[C@H]2[C@@H](CO)CO[C@@H]3O[C@]4(C)CC[C@@H]1[C@]32OO4	29	
